This is an account of results in patent US11384060B2, “Amide compounds and use thereof” (ALPHALA CO., LTD., priority 2017, dated 2022).

pIC50: −log10 of the molar value.

Experiment [1] has as its target T1, glucagon receptor (GCGR) (Homo sapiens, UniProt P47871).
T1 construct: expressed in transfected cells; host or cells: CHO-K1 cells overexpressing GCGR (membrane fractions)
Put plainly: I125-glucagon binding assay (competition, GCGR membrane fractions). The method in brief:
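Membranes from CHO-K1 cells overexpressing GCGR, 7.5 μg/well in 50 mM Tris pH 7.4 with 0.5% BSA, were preincubated 5 min with serially diluted compounds, then given 0.0625 nM final I^125-glucagon for 30 min at 25° C. Bound label was filtered on PEI-coated GF/B and counted; IC50 by non-linear regression.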

In experiment [2] the target is T2, glucagon receptor (GCGR) overexpressed CHO-K1 cells or human primary hepatocytes (Homo sapiens, UniProt P47871).
T2 construct: expressed in transfected cells; host or cells: GCGR overexpressed CHO-K1 cells or human primary hepatocytes (endogenous receptor)
Put plainly: Glucagon cAMP inhibition assay (Cisbio cAMP Dynamic 2 HTRF). The class given is cell-based. The method in brief: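 GCGR-overexpressing CHO-K1 cells or human primary hepatocytes in HBSS with 0.1% BSA and 800 nM IBMX, pre-incubated 30 min with serially diluted compounds (1% DMSO final), then stimulated 30 min at room temperature with glucagon at its EC50. cAMP measured by HTRF after 60 min lysis; IC50 by non-linear regression.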
On the technique in general: Time-resolved FRET reads energy transfer from a long-lived donor to a nearby acceptor.

As a reminder, the pIC50 is the negative decadic logarithm of the IC50, by convention in mol/L.

T2 sequence (P47871 26-477): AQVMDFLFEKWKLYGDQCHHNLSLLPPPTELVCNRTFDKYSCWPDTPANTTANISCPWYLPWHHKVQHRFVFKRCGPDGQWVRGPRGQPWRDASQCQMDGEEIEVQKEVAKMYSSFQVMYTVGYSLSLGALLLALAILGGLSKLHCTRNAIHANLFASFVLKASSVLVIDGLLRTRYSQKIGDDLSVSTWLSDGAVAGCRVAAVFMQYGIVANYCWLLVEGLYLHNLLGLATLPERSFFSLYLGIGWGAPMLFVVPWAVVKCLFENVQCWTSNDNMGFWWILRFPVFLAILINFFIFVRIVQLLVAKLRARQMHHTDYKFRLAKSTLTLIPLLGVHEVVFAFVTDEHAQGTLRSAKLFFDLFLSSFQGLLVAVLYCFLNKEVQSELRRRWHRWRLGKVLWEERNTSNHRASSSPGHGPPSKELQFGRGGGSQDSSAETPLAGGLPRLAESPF
T1 sequence (P47871 26-477): as above

As to `CC(C)C[C@@H](COc1ccc(-c2ccc(C(F)(F)F)cc2)cn1)Nc1ccc(C(=O)NCCC(=O)O)cc1` [Compound 15-11, (S)-3-(4-((4-methyl-1-((5-(4-(trifluoromethyl)phenyl)pyridin-2-yl)oxy)pentan-2-yl)amino)benzamido)propanoic Acid], the pIC50 in experiment [1] is 6.68. For the same compound, in experiment [2], the “IC50 cAMP” value was found to be 284.7 nM.
The corresponding values for `CC[C@H](C)[C@@H](COc1ccc(-c2ccc(C(F)(F)F)cc2)cn1)Nc1ccc(C(=O)NCCC(=O)O)cc1` [Compound 15-12, 3-(4-(((2S,3S)-3-methyl-1-((5-(4-(trifluoromethyl)phenyl)pyridin-2-yl)oxy)pentan-2-yl)amino)benzamido)propanoic Acid] are 6.42 and 294 nM.
In the case of `CC[C@H](C)[C@@H](COc1ccc(-c2ccc(C(F)(F)F)cc2Cl)cn1)Nc1ccc(C(=O)NCCC(=O)O)cc1` [Compound 15-13, 3-(4-(((2S,3S)-1-((5-(2-chloro-4-(trifluoromethyl)phenyl)pyridin-2-yl)oxy)-3-methylpentan-2-yl)amino)benzamido)propanoic Acid], the pIC50 in experiment [1] was 7.01. Besides, the “IC50 cAMP” value in experiment [2] was 123 nM.
On the same counts, the results for `CC[C@H](C)[C@@H](COc1ccc(-c2ccc(C(F)(F)F)cc2F)cn1)Nc1ccc(C(=O)NCCC(=O)O)cc1` [Compound 15-14, 3-(4-(((2S,3S)-1-((5-(2-fluoro-4-(trifluoromethyl)phenyl)pyridin-2-yl)oxy)-3-methylpentan-2-yl)amino)benzamido)propanoic Acid] are 6.42 and 280.6 nM.
In experiment [1], `CC[C@H](C)[C@@H](COc1ccc(-c2cc3ccccc3o2)cn1)Nc1ccc(C(=O)NCCC(=O)O)cc1` [Compound 15-15, 3-(4-(((2S,3S)-1-((5-(benzofuran-2-yl)pyridin-2-yl)oxy)-3-methylpentan-2-yl)amino)benzamido)propanoic Acid] gave a negative-log IC50 (pIC50) of 6.68. Moreover, the “IC50 cAMP” value in experiment [2] came to 32.73 nM.
The corresponding values for `CC(C)C[C@@H](COc1ccc(-c2ccc(C(F)(F)F)cc2F)cn1)Nc1ccc(C(=O)NCCC(=O)O)cc1` [Compound 15-16, (S)-3-(4-((1-((5-(2-fluoro-4-(trifluoromethyl)phenyl)pyridin-2-yl)oxy)-4-methylpentan-2-yl)amino)benzamido)propanoic Acid] are 6.17 and 999 nM.
The compound `CC(C)[C@@H](COc1ccc(-c2ccc(Cl)cc2Cl)cn1)Nc1ccc(C(=O)NCCC(=O)O)cc1` [Compound 15-17, (S)-3-(4-((1-((5-(2,4-dichlorophenyl)pyridin-2-yl)oxy)-3-methylbutan-2-yl)amino)benzamido)propanoic Acid] gave a pIC50 in experiment [1] of 6.67. Further, in experiment [2], the “IC50 cAMP” value is reported as 196 nM.
Regarding `CC(C)C[C@@H](COc1ccc(-c2ccc(C(F)(F)F)cc2Cl)cn1)Nc1ccc(C(=O)NCCS(=O)(=O)O)cc1` [Compound 15-18], the pIC50 in experiment [1] was 5.88. The “IC50 cAMP” value in experiment [2] is reported as over 30000 nM.
On the same counts, the results for `CC(C)C[C@@H](COc1ccc(-c2ccc(C(F)(F)F)nn2)cn1)Nc1ccc(C(=O)NCCC(=O)O)cc1` [Compound 15-19, (S)-3-(4-((4-methyl-1-((5-(6-(trifluoromethyl)pyridazin-3-yl)pyridin-2-yl)oxy)pentan-2-yl)amino)benzamido)propanoic Acid] are 5.52 and over 30000 nM.
The corresponding values for `CC[C@H](C)[C@@H](COc1ccc(-c2ccc(F)cc2F)cn1)Nc1ccc(C(=O)NCCC(=O)O)cc1` [Compound 15-20, 3-(4-(((2S,3S)-1-((5-(2,4-difluorophenyl)pyridin-2-yl)oxy)-3-methylpentan-2-yl)amino)benzamido)propanoic Acid] are 6.42 and 1255 nM.
`CC[C@H](C)[C@@H](COc1ccc(-c2ccc(F)cc2F)cn1)Nc1ccc(C(=O)NCCS(=O)(=O)O)cc1` [Compound 15-21, 2-(4-(((2S,3S)-1-((5-(2,4-difluorophenyl)pyridin-2-yl)oxy)-3-methylpentan-2-yl)amino)benzamido)ethane-1-sulfonic Acid] gave a pIC50 in experiment [1] of 5.28. Moreover, the “IC50 cAMP” value in experiment [2] is over 30000 nM.
The corresponding values for `CCCC[C@@H](COc1ccc(-c2cc3ccccc3o2)cn1)Nc1ccc(C(=O)NCCC(=O)O)cc1` [Compound 15-22, (S)-3-(4-((1-((5-(benzofuran-2-yl)pyridin-2-yl)oxy)hexan-2-yl)amino)benzamido)propanoic Acid] are 7.05 and 168 nM.
The corresponding values for `CCCC[C@@H](COc1ccc(-c2cc3ccccc3o2)cn1)Nc1ccc(C(=O)NCCS(=O)(=O)O)cc1` [Compound 15-23, (S)-2-(4-((1-((5-(benzofuran-2-yl)pyridin-2-yl)oxy)hexan-2-yl)amino)benzamido) ethane-1-sulfonic Acid] are 6.34 and over 30000 nM.
In turn, `CCCC[C@@H](COc1ccc(-c2ccc(Cl)cc2Cl)cn1)Nc1ccc(C(=O)NCCC(=O)O)cc1` [Compound 15-24, (S)-3-(4-((1-((5-(2,4-dichlorophenyl)pyridin-2-yl)oxy)hexan-2-yl)amino)benzamido)propanoic Acid] had a pIC50 in experiment [1] of 6.52. Also, in experiment [2], the “IC50 cAMP” value is reported as 293.9 nM.
The corresponding values for `CCCC[C@@H](COc1ccc(-c2ccc(C(F)(F)F)cc2Cl)cn1)Nc1ccc(C(=O)NCCC(=O)O)cc1` [Compound 15-25, (S)-3-(4-((1-((5-(2-chlor-4-(trifluoromethyl)phenyl)pyridin-2-yl)oxy)hexan-2-yl)amino)benzamido)propanoic Acid] are 6.66 and 245 nM.
On the same counts, the results for `CCCC[C@@H](COc1ccc(-c2ccc(C(F)(F)F)cc2F)cn1)Nc1ccc(C(=O)NCCC(=O)O)cc1` [Compound 15-26, (S)-3-(4-((1-((5-(2-fluoro-4-(trifluoromethyl)phenyl)pyridin-2-yl)oxy)hexan-2-yl)amino)benzamido)propanoic Acid] are 6.64 and 206.6 nM.
`O=C(O)CCNC(=O)c1ccc(N[C@H](COc2ccc(C(F)(F)F)cn2)c2ccc(-c3ccc(C(F)(F)F)cc3)cc2)cc1` [Compound 15-27, (S)-3-(4-((1-(4′-(trifluoromethyl)-[1,1′-biphenyl]-4-yl)-2-((5-(trifluoromethyl)pyridin-2-yl)oxy)ethyl)amino)benzamido)propanoic Acid] showed a pIC50 in experiment [1] of 7.00. The “IC50 cAMP” value in experiment [2] amounted to 316 nM.
On the same counts, the results for `O=C(NCCS(=O)(=O)O)c1ccc(N[C@H](COc2ccc(-c3cc4ccccc4o3)cn2)c2ccc(-c3ccc(C(F)(F)F)cc3)cc2)cc1` [Compound 15-28, (S)-2-(4-((2-((5-(benzofuran-2-yl)pyridin-2-yl)oxy)-1-(4′-(trifluoromethyl)-[1,1′-biphenyl]-4-yl)ethyl)amino)benzamido)ethane-1-sulfonic Acid] are 7.00 and 11647 nM.
The corresponding values for `O=C(O)CCNC(=O)c1ccc(N[C@H](COc2ccc(-c3cc4ccccc4o3)cn2)c2ccc(-c3ccc(C(F)(F)F)cc3)cc2)cc1` [Compound 15-29, (S)-3-(4-((2-((5-(benzofuran-2-yl)pyridin-2-yl)oxy)-1-(4′-(trifluoromethyl)-[1,1′-biphenyl]-4-yl)ethyl)amino)benzamido)propanoic Acid] are 7.70 and 107 nM.
On the same counts, the results for `CC(C)(C)c1nnc(-c2ccc(OC[C@@H](Nc3ccc(C(=O)NCCC(=O)O)cc3)c3ccc(-c4ccc(C(F)(F)F)cc4)cc3)nc2)o1` [Compound 15-30, (S)-3-(4-((2-((5-(5-(tert-butyl)-1,3,4-oxadiazol-2-yl)pyridin-2-yl)oxy)-1-(4′-(trifluoromethyl)-[1,1′-biphenyl]-4-yl)ethyl)amino)benzamido)propanoic Acid] are 5.70 and 18257 nM.
In experiment [1], `CCOC(=O)CCNC(=O)c1ccc(N[C@H](COc2ccc(-c3nnc(C(C)(C)C)o3)cn2)c2ccc(-c3ccc(C(F)(F)F)cc3F)cc2)cc1` [Compound 15-31, Ethyl (S)-3-(4-((2-((5-(5-(tert-butyl)-1,3,4-oxadiazol-2-yl)pyridin-2-yl)oxy)-1-(2′-fluoro-4′-(trifluoromethyl)-[1,1′-biphenyl]-4-yl)ethyl)amino)benzamido)propanoate] had a pIC50 of under 4.52. Besides, in experiment [2], the “IC50 cAMP” value is reported as over 30000 nM.
On the same counts, the results for `CC(C)(C)c1nnc(-c2ccc(OC[C@@H](Nc3ccc(C(=O)NCCC(=O)O)cc3)c3ccc(-c4ccc(C(F)(F)F)cc4F)cc3)nc2)o1` [Compound 15-32, (S)-3-(4-((2-((5-(5-(tert-butyl)-1,3,4-oxadiazol-2-yl)pyridin-2-yl)oxy)-1-(2′-fluoro-4′-(trifluoromethyl)-[1,1′-biphenyl]-4-yl)ethyl)amino)benzamido)propanoic Acid] are 6.82 and 809 nM.
On the same counts, the results for `CCOC(=O)CCNC(=O)c1ccc(N[C@H](COc2ccc(-c3nnc(C(C)(C)C)o3)cn2)c2ccc(-c3ccc(Cl)cc3Cl)cc2)cc1` [Compound 15-33, Ethyl (S)-3-(4-((2-((5-(5-(tert-butyl)-1,3,4-oxadiazol-2-yl)pyridin-2-yl)oxy)-1-(2′,4′-dichloro-[1,1′-biphenyl]-4-yl)ethyl)amino)benzamido)propanoate] are under 4.52 and over 30000 nM.
